Measured values as given in US20030095958A1, “Inhibitors of bace” (priority 2001, published 2003).

Target: BACE (Homo sapiens, UniProt P56817)
Test: Ki Determination for the Inhibition of BACE (FS-1 peptide fluorescence cleavage assay)
Type: biochemical
Details: apparent Ki; 50 nM BACE, 10 μM FS-1 substrate, 0.1M sodium acetate pH 4.5
Method in brief: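 Apparent Ki values derive from fitting fluorescence progress data (355 nm excitation, 495 nm emission) of FS-1 peptide cleavage to an integrated competitive tight-binding model. Reactions held 50 nM BACE, 10 μM substrate and inhibitor in 2% DMSO, pH 4.5 acetate buffer, with a 15 min enzyme-compound preincubation at room temperature.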

Chain of BACE (P56817 46-501): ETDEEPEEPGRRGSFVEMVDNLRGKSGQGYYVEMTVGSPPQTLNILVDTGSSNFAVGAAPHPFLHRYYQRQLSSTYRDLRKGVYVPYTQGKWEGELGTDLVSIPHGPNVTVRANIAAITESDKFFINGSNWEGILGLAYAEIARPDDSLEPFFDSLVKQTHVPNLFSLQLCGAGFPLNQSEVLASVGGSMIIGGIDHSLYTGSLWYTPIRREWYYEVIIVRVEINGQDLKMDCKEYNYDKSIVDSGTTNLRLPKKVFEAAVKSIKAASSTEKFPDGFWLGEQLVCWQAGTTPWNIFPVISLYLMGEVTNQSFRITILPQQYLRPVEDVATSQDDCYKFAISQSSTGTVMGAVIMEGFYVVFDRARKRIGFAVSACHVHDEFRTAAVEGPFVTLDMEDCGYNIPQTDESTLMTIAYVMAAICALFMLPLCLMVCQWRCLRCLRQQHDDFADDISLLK

Compound | Ki [µM]
O=C1CCCc2c(OCc3ccc(COc4ccccc4C(F)(F)F)cc3C3=CCNCC3)cccc21 [Compound 331, 5-[2-(1,2,3,6-Tetrahydro-pyridin-4-yl)-4-(2-trifluoromethyl-phenoxymethyl)-benzyloxy]-3,4-dihydro-2H-naphthalen-1-one] | < 3
O=S(=O)(Nc1cc(-c2ccc(Cl)c(Cl)c2)ccc1N1CCNCC1)c1ccc(-c2ccc(C(F)(F)F)cc2)cc1 [Compound 179, 4′-Trifluoromethyl-biphenyl-4-sulfonic acid (3′,4′-dichloro-4-piperazin-1-yl-biphenyl-3-yl)-amide] | 3 to 30
FC(F)(F)c1ccccc1OCc1ccc(COc2ccc(-c3ccccc3)cc2)c(C2=CCNCC2)c1 [Compound 325, 4-[2-(Biphenyl-4-yloxymethyl)-5-(2-trifluoromethyl-phenoxymethyl)-phenyl]-1,2,3,6-tetrahydro-pyridine] | < 3
CNCCN(C)c1ccc(-c2ccc(C(F)(F)F)cc2)cc1NCc1ccc2ccccc2c1 [Compound 226, N4-Methyl-N4-(2-methylamino-ethyl)-N3-naphthalen-2-ylmethyl-4′-trifluoromethyl-biphenyl-3,4-diamine] | < 3
O=C1c2ccccc2C(=O)N1CC1CNCCC1c1ccc(COc2ccccc2C(F)(F)F)cc1 (centres unmarked) [Compound 212, 2-{4-[4-(2-Trifluoromethyl-phenoxymethyl)-phenyl]-piperidin-3-ylmethyl}-isoindole-1,3-dione] | 3 to 30
COC(=O)c1cccc(-c2cc(COc3ccccc3C(F)(F)F)c(C3=CCNCC3)cc2COc2ccccc2C(F)(F)F)c1 [Compound 368, 4′-(1,2,3,6-Tetrahydro-pyridin-4-yl)-2′,5′-bis-(2-trifluoromethyl-phenoxymethyl)-biphenyl-3-carboxylic acid methyl ester] | < 3
c1ccc(COc2ccc3c(c2)c2c(n3Cc3ccc4ccccc4c3)CNCC2)cc1 [Compound 305, 6-Benzyloxy-9-naphthalen-2-ylmethyl-2,3,4,9-tetrahydro-1H-b-carboline] | 3 to 30
O=C(NCC1CNCCC1c1ccc(COc2ccccc2C(F)(F)F)cc1)Nc1ccc2ccccc2c1 (centres unmarked) [Compound 232, 1-Naphthalen-2-yl-3-{4-[4-(2-trifluoromethyl-phenoxymethyl)-phenyl]-piperidin-3-ylmethyl}-urea] | < 3
FC(F)(F)c1ccccc1OCc1ccc(COc2cccc3ccccc23)c(C2=CCNCC2)c1 [Compound 320, 4-[2-(Naphthalen-1-yloxymethyl)-5-(2-trifluoromethyl-phenoxymethyl)-phenyl]-1,2,3,6-tetrahydro-pyridine] | 3 to 30
O=[N+]([O-])c1cccc(-c2cc(COc3ccccc3C(F)(F)F)c(C3=CCNCC3)cc2COc2ccccc2C(F)(F)F)c1 [Compound 353, 4-[3′-Nitro-2,5-bis-(2-trifluoromethyl-phenoxymethyl)-biphenyl-4-yl]-1,2,3,6-tetrahydro-pyridine] | < 3
COC(=O)c1cc(C2=CCNCC2)c(COc2ccccc2C(F)(F)F)cc1-c1ccoc1 [Compound 383, 2-Furan-3-yl-5-(1,2,3,6-tetrahydro-pyridin-4-yl)-4-(2-trifluoromethyl-phenoxymethyl)-benzoic acid methyl ester] | 3 to 30
O=C(COCc1ccccc1)OCc1ccc(COc2ccccc2C(F)(F)F)cc1C1=CCNCC1 [Compound 315, Benzyloxy-acetic acid 2-(1,2,3,6-tetrahydro-pyridin-4-yl)-4-(2-trifluoromethyl-phenoxymethyl)-benzyl ester] | 3 to 30
O=C(NCc1ccccc1)C1CN(c2ccc(-c3ccc(C(F)(F)F)cc3)cc2NCc2ccc3ccccc3c2)CCN1 (centres unmarked) [Compound 194, 4-{3-[(Naphthalen-2-ylmethyl)-amino]-4′-trifluoromethyl-biphenyl-4-yl}-piperazine-2-carboxylic acid benzylamide] | < 3
FC(F)(F)c1ccccc1OCc1cc(COc2ccccc2C(F)(F)F)c(C2=CCNCC2)cc1COc1ccccc1C(F)(F)F [Compound 356, 4-[2,4,5-Tris-(2-trifluoromethyl-phenoxymethyl)-phenyl]-1,2,3,6-tetrahydro-pyridine] | < 3
FC(F)(F)c1ccc(COc2ccc3c(c2)c2c(n3Cc3ccc4ccccc4c3)CNCC2)cc1 [Compound 534, 9-Naphthalen-2-ylmethyl-6-(4-trifluoromethyl-benzyloxy)-2,3,4,9-tetrahydro-1H-b-carboline] | < 3
FC(F)(F)c1ccccc1OCc1ccc(COc2cccc3ncccc23)c(C2=CCNCC2)c1 [Compound 327, 5-[2-(1,2,3,6-Tetrahydro-pyridin-4-yl)-4-(2-trifluoromethyl-phenoxymethyl)-benzyloxy]-quinoline] | < 3
O=C(NC1CCCc2ccccc21)C1CNCCC1c1ccc(COc2ccccc2C(F)(F)F)cc1 (centres unmarked) [Compound 209, 4-[4-(2-Trifluoromethyl-phenoxymethyl)-phenyl]-piperidine-3-carboxylic acid (1,2,3,4-tetrahydro-naphthalen-1-yl)-amide] | 3 to 30
FC(F)(F)c1cccc(COc2ccc3c(c2)c2c(n3Cc3cccc4ccccc34)CNCC2)c1 [Compound 509, 9-Naphthalen-1-ylmethyl-6-(3-trifluoromethyl-benzyloxy)-2,3,4,9-tetrahydro-1H-b-carboline] | < 3

Now from value to molecule:

Ki [µM] | Compound
< 3 | O=C(c1ccc2ccccc2c1)n1c2c(c3cc(OCc4cccc(C(F)(F)F)c4)ccc31)CCNC2 [Compound 507, Naphthalen-2-yl-[6-(3-trifluoromethyl-benzyloxy)-1,2,3,4-tetrahydro-b-carbolin-9-yl]-methanone]
3 to 30 | O=C(Nc1cc(Oc2ccccc2)ccc1N1CCNCC1)c1cccc2ccccc12 [Compound 132, Naphthalene-1-carboxylic acid (5-phenoxy-2-piperazin-1-yl-phenyl)-amide]
< 3 | O=C(Nc1ccc(-c2ccc(Cl)c(Cl)c2)cc1N1CCNCC1)c1cccc2ccccc12 [Compound 173, Naphthalene-1-carboxylic acid (3′,4′-dichloro-3-piperazin-1-yl-biphenyl-4-yl)-amide]
< 3 | CC(C)NC(=O)C1CN(c2ccc(-c3ccc(C(F)(F)F)cc3)cc2NCc2ccc3ccccc3c2)CCN1 (centres unmarked) [Compound 193, 4-{3-[(Naphthalen-2-ylmethyl)-amino]-4′-trifluoromethyl-biphenyl-4-yl}-piperazine-2-carboxylic acid isopropylamide]
< 3 | O=C(Nc1cc(-c2cc(F)c(C(F)(F)F)cc2F)ccc1N1CCNCC1)c1cccc2ccccc12 [Compound 162, Naphthalene-1-carboxylic acid (2′,5′-difluoro-4-piperazin-1-yl-4′-trifluoromethyl-biphenyl-3-yl)-amide]
< 3 | O=C(Nc1cc(Br)c(COc2ccccc2C(F)(F)F)cc1N1CCNCC1)c1nccc2ccccc12 [Compound 183, Isoquinoline-1-carboxylic acid [5-bromo-2-piperazin-1-yl-4-(2-trifluoromethyl-phenoxymethyl)-phenyl]-amide]
3 to 30 | O=C(O)C1CN(c2ccc(-c3ccc(C(F)(F)F)cc3)cc2NCc2ccc3ccccc3c2)CCN1 (centres unmarked) [Compound 191, 4-{3-[(Naphthalen-2-ylmethyl)-amino]-4′-trifluoromethyl-biphenyl-4-yl}-piperazine-2-carboxylic acid]
3 to 30 | O=C(Nc1cc(C(F)(F)F)ccc1N1CCNCC1)c1ccc2ccccc2c1 [Compound 113, Naphthalene-2-carboxylic acid (2-piperazin-1-yl-5-trifluoromethyl-phenyl)-amide]
